Values quoted from earlier work in PMC12368482, “Antiprotozoal Activity of Highly Substituted Pyrazole and Pyrimidine Derivatives” (Chemmedchem, 2025).

What was measured:
Set-up in all cases: method as in PMID 17949068
Leishmania donovani = conditions: ref [15]; read-out: IC50 against Leishmania donovani; cited from earlier work
[1] = test system: P. falciparum chloroquine (CQ)‐resistant strain; conditions: ref [15]; read-out: IC50 against P. falciparum CQ‐resistant strain; cited from earlier work
normal myoblast L6 cells = conditions: ref [15]; cited from earlier work

Q: Which IC50 (Leishmania donovani) does the source give for `O=[N+]([O-])c1ccc(-n2nc(-c3ccc(Oc4ccccc4)cc3)cc2N2CCOCC2)cc1` [II] here?
A: The IC50 was 4.8 µM.

Q: And the IC50 [1]?
A: Its IC50 is 3.7 µM.

Q: And the “cytotoxicity against normal myoblast L6 cells” value (normal myoblast L6 cells)?
A: The value was “not cytotoxic”.
